{"source": "paper PMC5295395", "about": "“Inhibition of PlexA1-mediated brain tumor growth and tumor-associated angiogenesis using a transmembrane domain targeting peptide” (Oncotarget, 2016)", "molecules": {"B1": {"name": "Sema3A: PlexA1 ligand (protein, UniProt Q14563 21-771, looked up)", "Semaphorin-3A": "NYQNGKNNVPRLKLSYKEMLESNNVITFNGLANSSSYHTFLLDEERSRLYVGAKDHIFSFDLVNIKDFQKIVWPVSYTRRDECKWAGKDILKECANFIKVLKAYNQTHLYACGTGAFHPICTYIEIGHHPEDNIFKLENSHFENGRGKSPYDPKLLTASLLIDGELYSGTAADFMGRDFAIFRTLGHHHPIRTEQHDSRWLNDPKFISAHLISESDNPEDDKVYFFFRENAIDGEHSGKATHARIGQICKNDFGGHRSLVNKWTTFLKARLICSVPGPNGIDTHFDELQDVFLMNFKDPKNPVVYGVFTTSSNIFKGSAVCMYSMSDVRRVFLGPYAHRDGPNYQWVPYQGRVPYPRPGTCPSKTFGGFDSTKDLPDDVITFARSHPAMYNPVFPMNNRPIVIKTDVNYQFTQIVVDRVDAEDGQYDVMFIGTDVGTVLKVVSIPKETWYDLEEVLLEEMTVFREPTAISAMELSTKQQQLYIGSTAGVAQLPLHRCDIYGKACAECCLARDPYCAWDGSACSRYFPTAKRRTRRQDIRNGDPLTHCSDLHHDNHHGHSPEERIIYGVENSSTFLECSPKSQRALVYWQFQRRNEERKEEIRVDDHIIRTDQGLLLRSLQQKDSGNYLCHAVEHGFIQTLLKVTLEVIDTEHLEELLHKDDDGDGSKTKEMSNSMTPSQKVWYRDFMQLINHPNLNTMDEFCEQVWKRDRKQRRQRPGHTPGNSNKWKHLQENKKGRNRRTHEFERAPRSV"}}, "key": {"PlexA1 TMD": {"test_system": "PlexA1 TMD", "assay": "bacterial two-hybrid (BACTH) assay of TMD interactions with PlexA1 TMD", "type": "binding", "conditions": "Zip sequence positive control, Empty negative control", "from_the_text": "To further explore the TMD interactions of PlexA1 we used a bacterial two-hybrid system for a more systematic analysis of TMD interactions. TMD sequences of PlexA1 and various potential interacting partners including NRP1 and all other members of the Plexin-A family were co-expressed in the bacteria to define the hierarchy of the interactions.\n(§1) “Zip sequence” is the positive control of dimerization and “Empty” is the negative control of this bacterial system. (C, D) SPR assay (Biacore) to quantify MTP-PlexA1 interactions with PLexA1, NRP1 and VEGFR2 TMDs. (E) Proximity ligation assay showing that MTP-PlexA1 (10^−7 M) decreases the number of PLexA1-NRP1 interactions (green dots) in U373MG cells (scale bar = 20 μm)."}, "U373MG cells": {"test_system": "U373MG cells", "assay": "3D migration assay, U373MG spheroids in plasma clot", "type": "cell-based, human", "conditions": "U373MG, 100 ng/ml, 24 h plasma clot", "procedure": "Supplementary Figure S6: The anti-tumor effect of MTP-PlxA1 was verified in U373MG human GBM line. We found […]\nBecause PlexA1 is involved in cell migration we also performed a 3D migration assay. U373MG cells were grown as cell aggregates (micro tumor-like spheroids) for 24 h in plasma clot with or without VEGF. […]\nmigration that formed cell chains invading the 3D substrate as previously described (12). Strikingly, VEGF-induced cell migration was abolished when MTP-PlexA1 at 10–7 M was added to the cultures. […]\nof PlexA1, this part of the study exemplified the therapeutic potential of MTP-PlexA1 because this peptide was able to block two major mechanisms of tumor progression.\n(Stable Disease) and 62.5% PR (Partial Response).\n(§2) (1 picture or pasted object on this page, not shown here)"}, "NRP1/PlexA1 complexes": {"test_system": "NRP1/PlexA1 complexes", "assay": "in situ proximity ligation assay (Duo-link), NRP1/PlexA1 complexes in U373MG cells", "type": "cell-based, human", "conditions": "specificity control, MTP-Neu at 10–6 M", "procedure": "as §1\nAdditional specificity controls were performed using a mutated version of MTP-PlexA1 (in which 3 glycines of the GxxxGxxxG motif were replaced by 3 valines or MTP-Neu, an anti-breast cancer peptide known to not interact with PlexA1) as described in Supplementary Figure S2. […] Similar results were obtained when cells were exposed to VEGF (39.4% NRP1 and 35.4% PlexA4, Figure 4B).\nSupplementary Figure S2: Specificity controls were performed using a mutated version of MTP-PlexA1 […]\nLVIVAVLIAYKRK). Such mutations have been previously shown to be sufficient to lose activity of NRP1 antagonist membrane domain targeting peptide (Roth et al., 2008 Mol Biol Cell). We also used MTP-Neu, a transmembrane domain targeting peptide known to […]\nM, a concentration previously shown to produce maximal antagonist activity of the peptide. Additionally, we also repeated the in vitro angiogenic assay on matrigel using HUVEC cells. […]\nto MTP-PlexA1. These experiments confirmed the specificity of MTP-PlexA1.\nas §2"}, "HUVEC cells": {"test_system": "HUVEC cells", "assay": "pseudo-tube formation assay, HUVEC on matrigel", "type": "cell-based, human", "conditions": "specificity control", "from_the_text": "We observed PlexA1 positive blood vessels in the tissue array of GBM samples (Figure 5A). […] To address this possibility we first used a transgenic zebra-fish model tg(kdrl:eGFP) highlighting the endothelial cells. This allowed us to assess the angiogenic activities in vivo by analyzing formation of intersegmental vessels (ISVs) after morpholino-based knockdown of the target.\nFigure 5 MTP-PlexA1 inhibits developmental and tumor-specific PlexA1 pro-angiogenic role (A) Microphotographs illustrating the expression of PlexA1 in vascular-like structures in human glioma tissues. (Scale bar: 40 μm). (B) Morpholino-based PlexA1 knockdown in Zebrafish tg(kdrl:eGFP) line. Representative images of control, Plexin-A1 mismatch and Pexin-A1 knockdown embryos (plxna1MO) are shown 28 hours post fertilization (28hpf). […] (E) Live-monitoring of VEGF-induced HUVEC cell migration assay using the XCelligence system (transwell assay). (F) Microphotographs illustrating the expression of PlexA1 in blood vessels of the chick chorioallontoic membrane (upper left picture). Microphotographs (middle and lower left pictures) and camera lucida drawing (middle and lower right pictures) showing representative fields of observation after 24 h incubation with VEGF (100 ng/ml, +vehicle) or VEGF + MTP-PlexA1 (10^−7 M). The number of VEGF-induced new blood vessels is shown in the graph. […]"}, "NRP1": {"test_system": "NRP1", "conditions": "cited from earlier work", "from_the_text": "Glioblastoma (GBM) is a devastating disease with poor prognosis. Highly infiltrative and vascularized, these tumors are composed of multi-clonal cell types with various migratory and proliferative properties, and are genetically very heterogeneous. This obvious cellular heterogeneity largely accounts for the observed resistance to all available therapeutic strategies including, surgery, radiotherapy and chemotherapy. Significant recent progress in targeted therapy comprises blocking various receptor tyrosine kinases (RTK) or inhibiting angiogenesis. However, the clinica ..."}, "p-Akt/Akt": {"test_system": "p-Akt/Akt", "assay": "western blot of Akt phosphorylation in U373MG cells", "type": "cell-based, human", "conditions": "p-Akt/Akt ratio, western blot, Sema3A 100 ng/ml", "procedure": "(C) Rac-1 activation assay in resting condition and after Sema3A-induced Rac-1 activation in U373 MG cells. (D) Western blot analysis of phosphorylated Akt, total Akt and tubulin in U373MG cells treated with the vehicle (LDS 72 μM), Sema3A (100 ng/ml) or Sema3A + MTP-PlexA1 (10^−7 M). The lower panel is showing the quantification of the p-Akt/Akt ratio in the different conditions. (E) MTP-PlexA1 decreases VEGFR-2 phosphorylation induced by VEGF (100 ng/ml) in HUVEC cells. […]\nin 20 mM sodium acetate (pH 4.5) at a flow rate of 5 μl/ min 10–7 M of MTP-PlexA1 or Vehicle (LDS, 72 µM) during until desired surface densities, measured in response 1 h. Stimulation was done with 100ng/ml Semaphorin 3A units, were reached. […] First antibodies (Rabbit anti-phospho-the elution buffer containing detergent removed non- akt, Rabbit anti-akt, Cell Signaling #4060 and #9272 biotinylated peptides rendering the chip ready for analysis respectively) and mouse anti-tubulin α (Cell Signaling with monomeric biot-MTP-PlexA1. Blank surfaces were #2144) were incubated overnight at 4°C (+ anti-NRP1, used for background corrections. Injections of 30 µl anti-PlexA4 Abcam). […] Images of the immuno-blots cells per well in a 6-well plate and serum starved overnight. were acquired and analyzed thanks to the GENE GNOME Before protein extraction, the cells were treated either with apparatus (Syngene Bio Imaging, UK)."}}, "note": "Entries after “also recorded” stand apart in the source; their conditions may differ.", "data": [{"molecule": "TLPAIVSIAAGGSLLLIIVIIVLIAYKRK [Plexin-A2, TMD of Plexin A2 in BACTH assay]", "values": [{"measurement": "interaction with PlexA1 TMD", "setting": "PlexA1 TMD", "value": "weaker interactions"}]}, {"molecule": "VEGF [reference compound]", "values": [{"measurement": "tumor cell migration induced by VEGF", "setting": "U373MG cells", "value": "induced tumor cell"}]}, {"molecule": "IIPIVAGVVAGIVLIGLALLLIWKLLKR [Integrin Beta-1, TMD of Integrin β-1 in BACTH assay]", "values": [{"measurement": "interaction with PlexA1 TMD", "setting": "PlexA1 TMD", "value": "no significant interaction"}]}, {"molecule": "ISIISAVVGILLVVVLGVVFGILIKRR [HER2, TMD of HER2 in BACTH assay]", "values": [{"measurement": "interaction with PlexA1 TMD", "setting": "PlexA1 TMD", "value": "no significant interaction"}]}, {"molecule": "IIILVGTAVIAMFFWLLLVIILRTVKRK [VEGFR-2, TMD of VEGFR-2 in BACTH assay]", "values": [{"measurement": "interaction with PlexA1 TMD", "setting": "PlexA1 TMD", "value": "no significant interaction"}]}, {"molecule": "TLPAMMGLAAGGGLLLLAITAVLVAYKRK [Plexin-A3, TMD of Plexin A3 in BACTH assay]", "values": [{"measurement": "interaction with PlexA1 TMD", "setting": "PlexA1 TMD", "value": "weaker interactions"}]}, {"molecule": "SMEIVILVGTGVIAVFFWVLLLLIFCNRRK [VEGFR-3, TMD of VEGFR-3 in BACTH assay]", "values": [{"measurement": "interaction with PlexA1 TMD", "setting": "PlexA1 TMD", "value": "no significant interaction"}]}, {"molecule": "NFTGLIAGVVSISTALLLLLGFFLWLKKR [cMET, TMD of c-Met in BACTH assay]", "values": [{"measurement": "interaction with PlexA1 TMD", "setting": "PlexA1 TMD", "value": "no significant interaction"}]}, {"molecule": "TLPAIVGIGGGGGLLLLVIVAVLIAYKRK [PlexA1, TMD of Plexin A1 in BACTH assay]", "values": [{"measurement": "interaction with PlexA1 TMD", "setting": "PlexA1 TMD", "value": "homo-dimerization capacity"}]}, {"molecule": "TLPAIVVIGGVGVLLLLVIVAVLIAYKRK [MTP-PlexA1mut]", "values": [{"measurement": "disruption of NRP1/PlexA1 dimers", "setting": "NRP1/PlexA1 complexes", "value": "not by mutated MTP-PlexA1mut peptide"}, {"measurement": "effect on number of tube-like structures (HUVEC on matrigel)", "setting": "HUVEC cells", "value": "not able to decrease tube like structure; also recorded: not able to reduce the number of tube-like structures"}]}, {"molecule": "ILITIIAMSALGVLLGAVCGVVLYRKR [NRP1, TMD of Neuropilin-1 in BACTH assay]", "values": [{"measurement": "interaction with PlexA1 TMD", "setting": "PlexA1 TMD", "value": "significant interaction"}]}, {"molecule": "NLELITLCTCVAATLFWLLLTLFIRKK [VEGFR-1, TMD of VEGFR-1 in BACTH assay]", "values": [{"measurement": "interaction with PlexA1 TMD", "setting": "PlexA1 TMD", "value": "no significant interaction"}]}, {"molecule": "IEITLIIFGVMAGVIGTILLISYGIRRK [GPA, TMD of GpA in BACTH assay]", "values": [{"measurement": "interaction with PlexA1 TMD", "setting": "PlexA1 TMD", "value": "no significant interaction"}]}, {"molecule": "SLPAIVSIAVAGGLLIIFIVAVLIAYKRK [Plexin-A4, TMD of Plexin A4 in BACTH assay]", "values": [{"measurement": "interaction with PlexA1 TMD", "setting": "PlexA1 TMD", "value": "positive interactions"}]}, {"molecule": "ILITIIAMSALGVLLGAVCGVVLYRKR [MTP-NRP1, synthetic peptide mimicking the TMD of NRP1]", "values": [{"measurement": "NRP1 dimerization antagonism", "setting": "NRP1", "value": "potent inhibitor by antagonizing dimerization"}, {"measurement": "brain tumor growth", "setting": "NRP1", "value": "reducing brain tumor growth"}, {"measurement": "tumor cell migration and angiogenesis", "setting": "NRP1; in vitro and in vivo", "value": "impaired tumor cell migration and angiogenesis"}]}, {"molecule": "AAQVGLGVGTSLLALGVIIIVLMYRRK [Plexin-B1, TMD of Plexin B1 in BACTH assay]", "values": [{"measurement": "interaction with PlexA1 TMD", "setting": "PlexA1 TMD", "value": "no significant interaction"}]}, {"molecule": "B1", "values": [{"measurement": "change of Akt phosphorylation", "setting": "p-Akt/Akt", "value": "−33", "unit": "%"}]}]}
